Assay results from US8143254B2, “Methods for modulating ion channels” (Cornell Research Foundation, Inc., priority 2005, dated 2012).

Biological target: T1, Kv2.1 channels expressed in CHO cells (Rattus norvegicus, UniProt P15387)
T1 construct: expressed in transfected cells; host or cells: CHO cells (transient, co-transfected with GFP plasmid)
T1 sequence (P15387 1-857): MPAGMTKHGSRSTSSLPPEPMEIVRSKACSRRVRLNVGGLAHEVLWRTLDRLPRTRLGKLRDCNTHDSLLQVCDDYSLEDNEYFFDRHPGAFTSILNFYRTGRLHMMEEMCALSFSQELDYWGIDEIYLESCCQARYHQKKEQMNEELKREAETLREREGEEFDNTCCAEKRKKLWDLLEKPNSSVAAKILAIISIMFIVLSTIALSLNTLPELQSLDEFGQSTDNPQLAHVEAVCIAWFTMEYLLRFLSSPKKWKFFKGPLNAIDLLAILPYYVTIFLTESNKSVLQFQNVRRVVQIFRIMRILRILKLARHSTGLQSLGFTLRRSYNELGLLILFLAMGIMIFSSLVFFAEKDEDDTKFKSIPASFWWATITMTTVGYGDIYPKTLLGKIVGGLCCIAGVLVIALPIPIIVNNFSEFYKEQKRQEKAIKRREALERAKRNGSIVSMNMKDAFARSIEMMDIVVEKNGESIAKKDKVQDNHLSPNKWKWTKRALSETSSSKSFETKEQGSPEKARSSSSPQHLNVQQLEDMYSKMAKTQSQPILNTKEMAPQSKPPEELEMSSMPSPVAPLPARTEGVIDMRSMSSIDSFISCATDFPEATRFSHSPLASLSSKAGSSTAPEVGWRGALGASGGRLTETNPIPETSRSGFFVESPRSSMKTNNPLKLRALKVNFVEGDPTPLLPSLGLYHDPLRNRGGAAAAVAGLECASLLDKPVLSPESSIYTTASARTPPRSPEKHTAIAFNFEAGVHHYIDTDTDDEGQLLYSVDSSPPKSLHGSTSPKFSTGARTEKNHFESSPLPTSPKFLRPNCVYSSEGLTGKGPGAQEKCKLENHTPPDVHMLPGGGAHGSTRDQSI
Experiment: Whole-cell voltage clamp of CHO cells transfected with Kv2.1
Assay type: cell-based
From the text: Kv2.1 mutants were constructed using the QuickChange Multi Site-Directed Mutagenesis Kit (Stratagene, La Jolla, Calif.). Mutant Kv2.1 genes (in the pGA1 oocyte expression vector for oocyte expression) were sequenced in their entirety to confirm appropriate mutations and check for inadvertent mutations, and then subcloned into a wild-type pGA1 backbone. For oocyte expression, Kv3.4 was in pBF1, Kv4.2 was in pRAT. cRNA transcripts were produced from SacII-linearized (Kv2.1), Mlullinearized (Kv3.4) and Not1-linearized (Kv4.2) DNA templates using the T3 (Kv2.1), SP6 (Kv3.4) and T7 (Kv4.2) mMessage mMachine kits (Ambion, Austin, Tex.). cRNA was quantified by spectrophotometry and its size integrity verified by gel electophoresis. Defolliculated stage V and VI Xenopus laevis oocytes (purchased from Nasco, Grand Island, N.Y.) were injected with 5 ng of cRNA encoding Kv2.1, Kv3.4 or Kv4.2. Chinese Hamster Ovary (CHO) cells were transfected with 0.25 μg Kv2.1 cDNA, 2 μg blank plasmid and 2 μg Green fluorescent Protein in pBOB using Supetfect transfection reagent (Qiagen) 24 hours before whole-cell voltage clamp studies.
For whole-cell voltage clamp studies of CHO cells, bath solution was (in mM): 135 NaCl, 5 KCl, 1.2 MgCl2, 5 HEPES, 2.5 CaCl2, and 10 D-glucose, pH 7.4. Pipettes were 3-5 MQ resistance when filled with intracellular solution containing (in mM): 10 NaCl, 117 KCl, 2 MgCl2, 11 HEPES, 11 EGTA, and 1 CaCl2, pH 7.2. For experiments with extracellular drug application, cells were held at −80 mV and subjected to 2 sec test pulses […] every 30 s. Whole-cell patch clamp recordings were performed at 22-25° C. using an IX50 inverted microscope equipped with epifluorescence optics for GFP detection (Olympus), a Multiclamp 700 A Amplifier, a Digidata 1300 Analogue/Digital converter and pClamp9 software (Axon Instruments). Leak and liquid junction potentials (<4 mV) were not compensated for when generating current-voltage relationships. For intracellular drug application, the tip of the recording electrode was first filled with drug-free intracellular solution, the electrode was then back-filled with intracellular solution containing TEA (20 mM), TA279 (5 mM) or JC638.2α (0.5 mM). Cells were held at −80 mV and subjected to 2 sec test pulses from −60 mV to +60 mV in 10 mV increments, followed by a 1 sec tail pulse to −30 mV. After an initial recording which we denoted time 0, a second recording was performed after 5 minutes.
Data analysis: Current-voltage relationships were obtained by measuring peak current during depolarizing pulses. Inhibition constants for DABCO blockers were calculated after generating a dose response curve by fitting with a logistic dose-response function y=A2+[A1−A2/1+(x/x0)^p], where A1 is the maximum response plateau, A2 is the minimum response plateau, x is drug concentrator, x0 is the IC50, and p the Hill slope. Data analysis was performed using CLAMPFIT 9 (Axon Instruments, Foster City, Calif.) and tabulated in Excel 5.0. Graphs were generated using Origin 6.1. Data are expressed as mean±SEM, with n specifying the number of independent experiments. Statistical significance was assessed by one-way ANOVA with p<0.05 being indicative of significance.

| Compound | block on intracellular application (0.5 mM via recording electrode, 0 mV) | sensitivity of Kv2.1 in CHO cells relative to Kv2.1 in oocytes [fold] | block on intracellular application (5 μM via recording electrode, 0 mV, at 0 or 5 minutes) | inhibition at 0.5 µM (CHO, extracellular application, 500 nM, 0 mV, n=3, read-out: mean current inhibition) [%] |
| --- | --- | --- | --- | --- |
| c1cc(C[N+]23CCN(CC2)CC3)ccc1C[N+]12CCN(CC1)CC2 [JC638.2α, α,α′-[bis(4-aza-1-azoniabicyclo[2.2.2]octanyl)]p-xylene] | no significant block |  |  |  |
| CCCCCCCCCCCCCCCC[N+]12CCN(CC1)CC2 [TA279, 1-aza-4-azonia-4-hexadecylbicyclo[2.2.2]octane] |  | ~4 | no significant block | 59 ± 4 |
